Assay results reported in patent US20160326098A1, “Pharmaceutically Active Compound for Use as Anti-inflammatory Agent” (Pax Forschung GmbH, priority 2013, published 2016).

Experiments:
Type in all cases: in vivo
[1] = Body weight, mice with gastric injury without inflammation; settings: 1.11 mmol/kg force-fed, one day after gavage, FIG. 2
Procedure: First experiments regarding the effect of the compound of formula (I) and a pharmaceutical composition comprising the compound of formula (I) (clear aqueous solution of compound of formula (I) at pH 4.8), respectively, on gastric injury without inflammation were conducted on mice. 48 animals were randomly allocated into three groups. Group A (n=16) served as sham-operated controls. Samples of all animals were drawn on day 1 of the clinical tests. On day 2 the animals of group B (n=16) were force-fed acetylsalicylic acid (ASS) (1.11 mmol/kg body weight). Group C (n=16) was force-fed 1.11 mmol/kg body weight of the compound according to the invention. Group A only received the respective solvent (25% ethanol in water). One day after the gavage, additional samples were drawn. Fluorescence confocal endomicroscopy was performed to examine the microvasculature and morphologic changes of the mucosa of the distal colon, and full-thickness tissue samples and venous blood samples were taken to determine the biochemical changes in the colon and plasma. The effects were determined by way of measurement of body weight, blood gas analysation and biopsy. ASS was chosen as a comparative example due to its structural similarity and its known activity as anti-inflammatory agent.

[2] = Body weight, rats with gastric injury without inflammation; settings: 1.11 mmol/kg force-fed, one day after, FIG. 17
Procedure: (§1) The medicinal activity of the compound according to the invention and the pharmaceutical composition according to the invention was tested in a series of experiments performed on rats. The experiments were performed on male Sprague-Dawley rats (280-320 g) housed in plastic cages in a thermoneutral environment (21° C.±2° C.) with a 12 h dark-light cycle. The animals, fed on a normal diet with tap water ad libitum, were randomly allocated into experimental groups according to the feeding protocols.
(§2) Further experiments regarding the effect of a compound of formula (I) and a pharmaceutical composition comprising a compound of formula (I), respectively, on gastric injury without inflammation were conducted on rats. 15 animals were randomly allocated into three groups. Group H (n=5) served as sham-operated controls. Samples of all animals were drawn on day 1 of the clinical tests. On day 2 the animals of group I (n=5) were force-fed acetylsalicylic acid (ASS) (1.11 mmol/kg body weight). […] Fluorescence confocal endomicroscopy was performed to examine the microvasculature and morphologic changes of the mucosa of the distal colon, and full-thickness tissue samples and venous blood samples were taken to determine the biochemical changes in the colon and plasma. The effects were determined by way of measurement of body weight, blood gas analysation and biopsy. […]

[3] = test system: High mobility group box protein 1 (HMGB-1); assay: Plasma high mobility group protein B1, rats with gastric injury without inflammation; settings: 1.11 mmol/kg, day 3, vs control group H, FIG. 22
Procedure: High mobility group box protein 1 (HMGB-1) measurements in plasma:
Blood samples were drawn into chilled polypropylene tubes containing EDTA (1 mg/ml) and were centrifuged at 1200 g for 10 min at 4° C. The plasma samples were then collected and stored at −70° C. until assay. Plasma concentration of HMGB-1 was measured by a commercially available HMGB-1 ELISA kit (Shino-Test Corporation, Kanagawa, Japan).
as §2, with “weight). Group K (n=5) was force-fed 1.11 mmol/kg body weight of the compound according to the invention.” for “weight).”

myeloperoxidase (MPO) = assay: Tissue myeloperoxidase activity, mice with gastric injury without inflammation; settings: gastric and duodenal tissue, one day after treatment with 1.11 mmol/kg, vs control group A, FIGS. 5a/5b
Procedure: […] The homogenate was centrifuged at 4° C. for 20 minutes at 24,000 g, and the supernatant was loaded into centrifugal tubes (Amicon Centricon-100; 100,000-molecular-weight cutoff ultrafilter, Millipore Corporation, Bedford, Mass.). The activity of myeloperoxidase (MPO) was measured on the pellet of the homogenate.
The activity of MPO as a marker of tissue leukocyte infiltration was measured on the pellet of the homogenate. Briefly, the pellet was resuspended in K3PO4 buffer (0.05 M; pH 6.0) containing 0.5% […]. […] The reaction led to the hydrogen peroxide-dependent oxidation of tetramethylbenzidine, which could be detected spectrophotometrically at 450 nm (UV-1601 spetrophotometer; Shimadzu, Kyoto, Japan). Myeloperoxidase activities were measured at 37° C.; the reaction was stopped after 5 minutes by the addition of 0.2 ml of H2SO4 (2 M), and the resulting data were referred to the protein content.
First experiments regarding the effect of the compound of formula (I) and a pharmaceutical composition comprising the compound of formula (I) (clear aqueous solution of compound of formula (I) at pH 4.8), respectively, on gastric injury without inflammation were conducted on mice. […] The effects were determined by way of measurement of body weight, blood gas analysation and biopsy. […]

xanthine oxidase enzyme = assay: Xanthine oxidase enzyme activity in tissue, rats with gastric injury without inflammation; settings: gastric and colon tissue, 1.11 mmol/kg, vs control group H, FIGS. 24a/24b
Procedure: The XOR activity was determined in the ultrafiltered, concentrated supernatant by fluorometric kinetic assay based on the conversion of pterine to isoxanthopterine in the presence (total XOR) or absence (xanthine oxidase activity) of the electron acceptor methylene blue.
Further experiments regarding the effect of a compound of formula (I) and a pharmaceutical composition comprising a compound of formula (I), respectively, on gastric injury without inflammation were conducted on rats. 15 animals were randomly allocated into three groups. Group H (n=5) served as sham-operated controls. Samples of all animals were drawn on day 1 of the clinical tests. On day 2 the animals of group I (n=5) were force-fed acetylsalicylic acid (ASS) (1.11 mmol/kg body weight). Group K (n=5) was force-fed 1.11 mmol/kg body weight of the compound according to the invention. Group H only received the respective solvent (25% ethanol in water). One day after the gavage, additional samples were drawn. Fluorescence confocal endomicroscopy was performed to examine the microvasculature and morphologic changes of the mucosa of the distal colon, and full-thickness tissue samples and venous blood samples were taken to determine the biochemical changes in the colon and plasma. The effects were determined by way of measurement of body weight, blood gas analysation and biopsy. […]

[4] = Haematocrit in blood, rats with gastric injury without inflammation; settings: 1.11 mmol/kg; for percentage of haematocrit in the blood / haematocrit level, low haematocrit data group (severe bleeding with plasma and cell loss): vs control group H; for percentage of haematocrit in the blood: FIG. 18; for haematocrit level, low haematocrit data group (severe bleeding with plasma and cell loss): FIG. 20; for haematocrit level, high haematocrit data group (bleeding with plasma loss): vs sham group H, FIG. 19
Procedure: as §1
Further experiments regarding the effect of a compound of formula (I) and a pharmaceutical composition comprising a compound of formula (I), respectively, on gastric injury without inflammation were conducted on rats. 15 animals were randomly allocated into three groups. Group H (n=5) served as sham-operated controls. Samples of all animals were drawn on day 1 of the clinical tests. On day 2 the animals of group I (n=5) were force-fed acetylsalicylic acid (ASS) (1.11 mmol/kg body weight). Group K (n=5) was force-fed 1.11 mmol/kg body weight of the compound according to the invention. Group H only received the respective solvent (25% ethanol in water). One day after the gavage, additional samples were drawn. Fluorescence confocal endomicroscopy was performed to examine the microvasculature and morphologic changes of the mucosa of the distal colon, and full-thickness tissue samples and venous blood samples were taken to determine the biochemical changes in the colon and plasma. The effects were determined by way of measurement of body weight, blood gas analysation and biopsy. ASS was chosen as a comparative example due to its structural similarity and its known activity as anti-inflammatory agent.
On the basis of the haematocrit measurements, the data can be divided into two groups:
a) high haematocrit level, indicating bleeding with plasma loss (FIG. 19); and b) low haematocrit level, indicating severe bleeding with plasma and cell loss (FIG. 20).

SMILES: CC(=O)Oc1ccccc1C(=O)O [ASS, acetylsalicylic acid, reference compound]
- change in body weight [1]: severe loss of body weight
- change in body weight [2]: severe loss of body weight
- concentration of the high mobility group protein B1 in the plasma [3]: increased
- myeloperoxidase (MPO) activity (myeloperoxidase (MPO)): increased
- activity of xanthine oxidase enzyme (xanthine oxidase enzyme): increased activity
- percentage of haematocrit in the blood [4]: severe change in the haematocrit level
- haematocrit level, low haematocrit data group (severe bleeding with plasma and cell loss) [4]: severe drop
- haematocrit level, high haematocrit data group (bleeding with plasma loss) [4]: increase of the haematocrit level

SMILES: CC(=O)Oc1ccccc1C(=O)NC(CO)(CO)CO [compound according to the invention]
- change in body weight [1]: only showed a minor loss in body weight
- change in body weight [2]: only showed a minor loss in body weight
- concentration of the high mobility group protein B1 in the plasma [3]: comparable with the concentration in the plasma of the animals in the control group H
- myeloperoxidase (MPO) activity (myeloperoxidase (MPO)): does not further enhance the inflammatory processes
- activity of xanthine oxidase enzyme (xanthine oxidase enzyme): no such increase
- percentage of haematocrit in the blood [4]: No change in the haematocrit level
- haematocrit level, low haematocrit data group (severe bleeding with plasma and cell loss) [4]: no changes could be detected
- haematocrit level, high haematocrit data group (bleeding with plasma loss) [4]: no change in the haematocrit level
